Results from patent EP4316461A1, “A PRESERVATIVE COMPOSITION” (BRAIN Biotech AG, priority 2022, dated 2024).

Tests used:
Format in all cases: cell-based
Actinomyces viscosus = experiment: Antimicrobial activity (MIC); details: Strain ID DSM43798; potato dextrose broth pH 3.8
[1] = tested on: Alicyclobacillus acidoterrestris; experiment: Antimicrobial activity (MIC); details: Strain ID DSM 2498; potato dextrose broth pH 3.8
Alternaria alternata = experiment: Antimicrobial activity (MIC); details: Strain ID DSM 12633; potato dextrose broth pH 3.8
Aspergillus brasiliensis = experiment: Antimicrobial activity (MIC); details: Strain ID DSM 1988; potato dextrose broth pH 3.8
Bacillus cereus = experiment: Antimicrobial activity (MIC); details: Strain ID DSM4490; potato dextrose broth pH 3.8
Bacillus licheniformis = experiment: Antimicrobial activity (MIC); details: Strain ID DSM 13; potato dextrose broth pH 3.8
Botrytis cinerea = experiment: Antimicrobial activity (MIC); details: Strain ID DSM 5145; potato dextrose broth pH 3.8
[2] = tested on: Brettanomyces naardenensis; experiment: Antimicrobial activity (MIC); details: Strain ID CBS 6115; potato dextrose broth pH 3.8
Byssochlamys fulva = experiment: Antimicrobial activity (MIC); details: Strain ID DSM 1808; potato dextrose broth pH 3.8
Campylobacter jejuni = experiment: Antimicrobial activity (MIC); details: Strain ID DSM 4688; potato dextrose broth pH 3.8
Candida albicans = experiment: Antimicrobial activity (MIC); details: Strain ID ATCC10231; potato dextrose broth pH 3.8
Candida parapsilosis = experiment: Antimicrobial activity (MIC); details: Strain ID ATCC 20384; potato dextrose broth pH 3.8
[3] = tested on: Cladosporium cladosporioides; experiment: Antimicrobial activity (MIC); details: Strain ID DSM19653; potato dextrose broth pH 3.8
Clostridium perfringens = experiment: microbe, parasite or virus in culture; details: Strain ID DSM 756; potato dextrose broth pH 3.8
Clostridium sporogenes = experiment: Antimicrobial activity (MIC); details: Strain ID ATCC 19404; potato dextrose broth pH 3.8
Corynebacterium xerosis = experiment: Antimicrobial activity (MIC); details: Strain ID DSM 20743; potato dextrose broth pH 3.8
Cutibacterium acnes = experiment: Antimicrobial activity (MIC); details: Strain ID DSM 1897; potato dextrose broth pH 3.8
Enterobacter cloacae = experiment: Antimicrobial activity (MIC); details: Strain ID DSM 6234; potato dextrose broth pH 3.8
Enterococcus faecalis = experiment: Antimicrobial activity (MIC); details: Strain ID ATCC 7080; potato dextrose broth pH 3.8
[4] = tested on: Fusobacterium nucleatum subsp. vincentii; experiment: Antimicrobial activity (MIC); details: Strain ID DSM 19507; potato dextrose broth pH 3.8
[5] = tested on: Gluconacetobacter liquefaciens; experiment: Antimicrobial activity (MIC); details: Strain ID DSM 5603; potato dextrose broth pH 3.8
[6] = tested on: Lactobacillus paracasei ssp. paracasei; experiment: Antimicrobial activity (MIC); details: Strain ID DSM 46331; potato dextrose broth pH 3.8
[7] = tested on: Lactobacillus plantarum ssp. plantarum; experiment: Antimicrobial activity (MIC); details: Strain ID DSM 20174; potato dextrose broth pH 3.8
Leuconostoc lactis = experiment: Antimicrobial activity (MIC); details: Strain ID DSM 20202; potato dextrose broth pH 3.8
[8] = tested on: Leuconostoc mesenteroides ssp. mesenteroides; experiment: Antimicrobial activity (MIC); details: Strain ID DSM 20343; potato dextrose broth pH 3.8
Listeria monocytogenes = experiment: Antimicrobial activity (MIC); details: Strain ID DSM 20600; potato dextrose broth pH 3.8
Malassezia furfur = experiment: Antimicrobial activity (MIC); details: Strain ID DSM 6170; potato dextrose broth pH 3.8
[9] = tested on: Pasteurella multocida ssp. multocida; experiment: Antimicrobial activity (MIC); details: Strain ID DSM 16031; potato dextrose broth pH 3.8
Penicillium expansum = experiment: Antimicrobial activity (MIC); details: Strain ID DSM 62841; potato dextrose broth pH 3.8
[10] = tested on: Phanerochaete chrysosporium; experiment: Antimicrobial activity (MIC); details: Strain ID DSM 1556; potato dextrose broth pH 3.8
Porphyromonas gingivalis = experiment: Antimicrobial activity (MIC); details: Strain ID DSM 20709; potato dextrose broth pH 3.8
Pseudomonas aeruginosa = experiment: Antimicrobial activity (MIC); details: Strain ID DSM 1117; potato dextrose broth pH 3.8
Pseudomonas fluorescens = experiment: Antimicrobial activity (MIC); details: Strain ID DSM50337; potato dextrose broth pH 3.8
Saccharomyces cerevisiae = experiment: Antimicrobial activity (MIC); details: Strain ID DSM 2548; potato dextrose broth pH 3.8
[11] = tested on: Salmonella enterica ssp. enterica Ser. typhimurium; experiment: Antimicrobial activity (MIC); details: Strain ID DSM 17058; potato dextrose broth pH 3.8
Staphylococcus aureus = experiment: Antimicrobial activity (MIC); details: Strain ID DSM 2569; potato dextrose broth pH 3.8
Streptococcus mutans = experiment: Antimicrobial activity (MIC); details: Strain ID DSM 20523; potato dextrose broth pH 3.8
Yarrowia lipolytica = experiment: Antimicrobial activity (MIC); details: Strain ID DSM 70561; potato dextrose broth pH 3.8
Zygosaccharomyces bailii = experiment: Antimicrobial activity (MIC); details: Strain ID DSM 70834; potato dextrose broth pH 3.8
Zygosaccharomyces rouxii = experiment: Antimicrobial activity (MIC); details: Strain ID DSM 7525; potato dextrose broth pH 3.8

Molecule: C[C@@H]1O[C@@H](O[C@H]2[C@H](O[C@H]3CC[C@@]4(C)C(CC[C@]5(C)[C@@H]4CC=C4[C@H]6CC(C)(C)CC[C@]6(C(=O)O)CC[C@]45C)C3(C)CO)OC[C@H](O)[C@@H]2O[C@@H]2OC[C@H](O)[C@H](O)[C@H]2O)[C@H](O)[C@H](O)[C@H]1O (some centres unmarked) [B, Clemontanoside C [80666-65-5]]
- Minimal Inhibitory Concentration (MIC) (Actinomyces viscosus): > 80 µg/mL
- Minimal Inhibitory Concentration (MIC) [1]: 140 µg/mL
- Minimal Inhibitory Concentration (MIC) (Alternaria alternata): > 80 µg/mL
- Minimal Inhibitory Concentration (MIC) (Aspergillus brasiliensis): > 80 µg/mL
- Minimal Inhibitory Concentration (MIC) (Bacillus cereus): > 80 µg/mL
- Minimal Inhibitory Concentration (MIC) (Bacillus licheniformis): > 80 µg/mL
- Minimal Inhibitory Concentration (MIC) (Botrytis cinerea): > 80 µg/mL
- Minimal Inhibitory Concentration (MIC) [2]: > 80 µg/mL
- Minimal Inhibitory Concentration (MIC) (Byssochlamys fulva): > 80 µg/mL
- Minimal Inhibitory Concentration (MIC) (Campylobacter jejuni): > 80 µg/mL
- Minimal Inhibitory Concentration (MIC) (Candida albicans): > 80 µg/mL
- Minimal Inhibitory Concentration (MIC) (Candida parapsilosis): > 80 µg/mL
- Minimal Inhibitory Concentration (MIC) [3]: > 80 µg/mL
- Minimal Inhibitory Concentration (MIC) (Clostridium perfringens): > 80 µg/mL
- Minimal Inhibitory Concentration (MIC) (Clostridium sporogenes): 80 µg/mL
- Minimal Inhibitory Concentration (MIC) (Corynebacterium xerosis): > 80 µg/mL
- Minimal Inhibitory Concentration (MIC) (Cutibacterium acnes): > 80 µg/mL
- Minimal Inhibitory Concentration (MIC) (Enterobacter cloacae): > 80 µg/mL
- Minimal Inhibitory Concentration (MIC) (Enterococcus faecalis): > 80 µg/mL
- Minimal Inhibitory Concentration (MIC) [4]: > 80 µg/mL
- Minimal Inhibitory Concentration (MIC) [5]: 40 µg/mL
- Minimal Inhibitory Concentration (MIC) [6]: > 80 µg/mL
- Minimal Inhibitory Concentration (MIC) [7]: 400 µg/mL
- Minimal Inhibitory Concentration (MIC) (Leuconostoc lactis): > 80 µg/mL
- Minimal Inhibitory Concentration (MIC) [8]: > 80 µg/mL
- Minimal Inhibitory Concentration (MIC) (Listeria monocytogenes): > 80 µg/mL
- Minimal Inhibitory Concentration (MIC) (Malassezia furfur): 80 µg/mL
- Minimal Inhibitory Concentration (MIC) [9]: > 80 µg/mL
- Minimal Inhibitory Concentration (MIC) (Penicillium expansum): >500 µg/mL
- Minimal Inhibitory Concentration (MIC) [10]: > 80 µg/mL
- Minimal Inhibitory Concentration (MIC) (Porphyromonas gingivalis): > 80 µg/mL
- Minimal Inhibitory Concentration (MIC) (Pseudomonas aeruginosa): > 80 µg/mL
- Minimal Inhibitory Concentration (MIC) (Pseudomonas fluorescens): > 80 µg/mL
- Minimal Inhibitory Concentration (MIC) (Saccharomyces cerevisiae): > 80 µg/mL
- Minimal Inhibitory Concentration (MIC) [11]: > 80 µg/mL
- Minimal Inhibitory Concentration (MIC) (Staphylococcus aureus): > 80 µg/mL
- Minimal Inhibitory Concentration (MIC) (Streptococcus mutans): > 80 µg/mL
- Minimal Inhibitory Concentration (MIC) (Yarrowia lipolytica): > 80 µg/mL
- Minimal Inhibitory Concentration (MIC) (Zygosaccharomyces bailii): > 80 µg/mL
- Minimal Inhibitory Concentration (MIC) (Zygosaccharomyces rouxii): 500 µg/mL

Molecule: Transsylvanoside H [C, Transsylvanoside H [174423-50-8]]
- Minimal Inhibitory Concentration (MIC) (Actinomyces viscosus): > 80 µg/mL
- Minimal Inhibitory Concentration (MIC) [1]: 40 µg/mL
- Minimal Inhibitory Concentration (MIC) (Alternaria alternata): > 80 µg/mL
- Minimal Inhibitory Concentration (MIC) (Aspergillus brasiliensis): > 80 µg/mL
- Minimal Inhibitory Concentration (MIC) (Bacillus cereus): > 80 µg/mL
- Minimal Inhibitory Concentration (MIC) (Bacillus licheniformis): > 80 µg/mL
- Minimal Inhibitory Concentration (MIC) (Botrytis cinerea): > 80 µg/mL
- Minimal Inhibitory Concentration (MIC) [2]: > 80 µg/mL
- Minimal Inhibitory Concentration (MIC) (Byssochlamys fulva): > 80 µg/mL
- Minimal Inhibitory Concentration (MIC) (Campylobacter jejuni): > 80 µg/mL
- Minimal Inhibitory Concentration (MIC) (Candida albicans): > 80 µg/mL
- Minimal Inhibitory Concentration (MIC) (Candida parapsilosis): > 80 µg/mL
- Minimal Inhibitory Concentration (MIC) [3]: > 80 µg/mL
- Minimal Inhibitory Concentration (MIC) (Clostridium perfringens): > 80 µg/mL
- Minimal Inhibitory Concentration (MIC) (Clostridium sporogenes): 80 µg/mL
- Minimal Inhibitory Concentration (MIC) (Corynebacterium xerosis): > 80 µg/mL
- Minimal Inhibitory Concentration (MIC) (Cutibacterium acnes): > 80 µg/mL
- Minimal Inhibitory Concentration (MIC) (Enterobacter cloacae): > 80 µg/mL
- Minimal Inhibitory Concentration (MIC) (Enterococcus faecalis): > 80 µg/mL
- Minimal Inhibitory Concentration (MIC) [4]: 80 µg/mL
- Minimal Inhibitory Concentration (MIC) [5]: 140 µg/mL
- Minimal Inhibitory Concentration (MIC) [6]: > 80 µg/mL
- Minimal Inhibitory Concentration (MIC) [7]: 40 µg/mL
- Minimal Inhibitory Concentration (MIC) (Leuconostoc lactis): 80 µg/mL
- Minimal Inhibitory Concentration (MIC) [8]: > 80 µg/mL
- Minimal Inhibitory Concentration (MIC) (Listeria monocytogenes): > 80 µg/mL
- Minimal Inhibitory Concentration (MIC) (Malassezia furfur): > 80 µg/mL
- Minimal Inhibitory Concentration (MIC) [9]: > 80 µg/mL
- Minimal Inhibitory Concentration (MIC) (Penicillium expansum): >500 µg/mL
- Minimal Inhibitory Concentration (MIC) [10]: > 80 µg/mL
- Minimal Inhibitory Concentration (MIC) (Porphyromonas gingivalis): > 80 µg/mL
- Minimal Inhibitory Concentration (MIC) (Pseudomonas aeruginosa): > 80 µg/mL
- Minimal Inhibitory Concentration (MIC) (Pseudomonas fluorescens): > 80 µg/mL
- Minimal Inhibitory Concentration (MIC) (Saccharomyces cerevisiae): > 80 µg/mL
- Minimal Inhibitory Concentration (MIC) [11]: > 80 µg/mL
- Minimal Inhibitory Concentration (MIC) (Staphylococcus aureus): > 80 µg/mL
- Minimal Inhibitory Concentration (MIC) (Streptococcus mutans): > 80 µg/mL
- Minimal Inhibitory Concentration (MIC) (Yarrowia lipolytica): > 80 µg/mL
- Minimal Inhibitory Concentration (MIC) (Zygosaccharomyces bailii): > 80 µg/mL
- Minimal Inhibitory Concentration (MIC) (Zygosaccharomyces rouxii): 500 µg/mL
